Laboratory results published in article PMC5442318, “Hundreds of dual-stage antimalarial molecules discovered by a functional gametocyte screen” (Nature Communications, 2017).
Where two headings read alike, the source gives them in different places.

Experiments:
[1] = tested on: P. falciparum stages IV–V gametocytes; test: Gametocytocidal ATP-depletion assay (gametocyte ATP bioluminescence); type: cell-based, Plasmodium falciparum
Outline: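 Purified stage IV–V gametocytes (12,500/well) incubated with compound for 48 h at 37 °C under 3% O2/5% CO2. ATP measured by BacTiter-Glo luminescence as a viability surrogate; hits tested at 2 μM single concentration.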

HepG2 cells = test: HepG2 cytotoxicity assay; type: cell-based
Outline: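 Post-incubation CellTiter-Glo luminescence; 30 min RT equilibration, 10 min RT stabilization before reading.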

[2] = tested on: P. falciparum asexual blood stages; details: read-out: Pf Asexual blood stages XC50, cited from earlier work
[3] = tested on: P. falciparum stage V female gametocytes; test: P. falciparum female gametocyte activation assay (Pf FGAA), 24 h or 48 h preincubation, Pfs25 expression readout; type: cell-based, Plasmodium falciparum NF54; details: mean, read-out: Gametocytes mean Pf FGAA IC50
Outline: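 Purified stage V gametocytes from P. falciparum NF54 gametocyte cultures were exposed to compounds for 24 h or 48 h at 37 °C under 3% O2/5% CO2, then activated by temperature drop plus xanthurenic acid. Activated females were stained with Cy3-anti-Pfs25 (0.5 μg ml^−1) for 24 h at 26 °C and counted by high-content imaging; pIC50 by nonlinear regression.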

[4] = TCAMS asexual blood stage data, ref 1 (Gamo, F. J. et al., Nature 465, 305-310, 2010)
[5] = P. falciparum female gametocytes
[6] = TCAMS data, ref 1 (Gamo et al., 2010)
[7] = P. falciparum female gametocyte activation assay

SMILES	Gametocytes mean ATP inhibition at 2µM [1] [%]	HepG2 cells mean TOX50 (HepG2 cells; HepG2 cells; mean) [µM]	IC50 [2, 4] [nM]	IC50 [3, 5] [nM]	Gametocytes mean ATP inhibition at 2µM (%) [1] [%]	HepG2 cells mean TOX50 (HepG2 cells; mean) [µM]	IC50 [2, 6] [nM]	IC50 [3] [nM]	HepG2 cells mean TOX50 (HepG2 cells; mean; HepG2 cells) [µM]	IC50 [3, 7] [nM]
Cc1cc(-c2ccc(CNC3Cc4ccccc4C3)cc2)ccc1S(=O)(=O)NCCN1CCCC1.O=C(O)C(F)(F)F [TCMDC-132243]	16.13	5.31	700	1830	–	–	–	–	–	–
C[C@H](Cc1ccc(CCc2ccc(C[C@@H](C)NC[C@H](O)c3cccc(Cl)c3)cc2)cc1)NC[C@H](O)c1cccc(Cl)c1.Cl [TCMDC-131551]	51.33	4.27	940	2050	–	–	–	–	–	–
CN(CCCCN)Cc1ccc(-c2ccc(Cl)cc2)cc1 [TCMDC-140123]	–	–	–	–	17.75	3.55	880	1580	–	–
CNCCNCc1ccc(-c2ccc(-c3nc4cc(C(F)(F)F)ccc4[nH]3)s2)cc1.O=C(O)C(F)(F)F [TCMDC-132838]	-8.87	6.10	600	1280	–	–	–	–	–	–
Cc1cc(F)ccc1-c1nc(NCCCNCCc2ccccc2)nc2c1ccc(=O)n2-c1c(F)cccc1F.O=C(O)C(F)(F)F [TCMDC-141804]	82.21	–	190	–	–	–	–	–	12.59	3610
COc1ccc2ccc(OC)c(CNCCCCCCNCc3c(OC)ccc4ccc(OC)cc34)c2c1.CS(=O)(=O)O [TCMDC-137796]	–	–	–	–	68.84	3.31	700	1210	–	–
COc1ccc(CNCCCCCCNCc2ccc(OC)c3ccccc23)c2ccccc12.Cl [TCMDC-137631]	–	–	–	–	16.64	1.82	580	720	–	–
CCCCN(CCCC)CCCCNc1c2ccc(Cl)cc2nc2ccc(OC)cc12.Cl [TCMDC-137460]	–	–	–	–	11.49	4.73	180	1970	–	–
COc1cccc(OC)c1CN1CCC(N(C)CCCCCCCCCN2CCC(OC(=O)Nc3ccccc3-c3ccccc3)CC2)CC1 [TCMDC-134690]	15.06	1.91	320	1310	–	–	–	–	–	–
Nc1nc(N)c2cc(NC(=O)c3ccc(Cl)c(Cl)c3)ccc2n1 [TCMDC-141982]	1.96	–	150	–	–	–	–	–	2.14	1590
COc1cc2nc(N3CCC(CCCC4CCNCC4)CC3)nc(NCc3ccccn3)c2cc1OC.O=C(O)C(F)(F)F [TCMDC-138494]	–	–	–	–	35.38	18.51	760	6860	–	–
Cc1c(Cl)cccc1N=C(S)NN=Cc1ccccn1 [TCMDC-125487]	74.71	>100	600	28	–	–	–	–	–	–
O=C(Nc1cccc(-c2cccc(-c3nc4cc(C(F)(F)F)ccc4[nH]3)c2)c1)Nc1ccc(F)c(F)c1F [TCMDC-133229]	-42.33	3.43	120	1400	–	–	–	–	–	–
Oc1c(C(Nc2ccccn2)c2ccc(Cl)cc2Cl)ccc2cccnc12 (stereo not drawn) [TCMDC-125559]	84.30	12.74	890	1140	–	–	–	–	–	–
O=C(NCC1CCN(CCN2CCC(c3cn(CCO)c4ccccc34)CC2)CC1)c1ccc(-c2ccc(C(F)(F)F)cc2)cc1 [TCMDC-138856]	–	–	–	–	5.55	2.69	440	1470	–	–
ON=C1CCc2cc(-c3cc(-c4ccc(OC5CCNCC5)cc4)oc3-c3ccncc3)ccc21 [TCMDC-141381]	40.68	–	160	–	–	–	–	–	5.01	200
CCCCOc1ccc(CNCCCCCCNCc2ccc(OCCCC)c3ccccc23)c2ccccc12.CS(=O)(=O)O [TCMDC-137281]	–	–	–	–	94.34	2.29	1130	400	–	–
CCCCCCCN1CC[C@@H](CCCc2ccnc3ccc(OCCN4CCNCC4)cc23)[C@@H](CC)C1.Cl [TCMDC-139817]	–	–	–	–	8.71	4.90	770	1860	–	–
CC(C)(CN)c1cc(-c2ccc(Cl)c(O)c2)c(-c2ccncc2)o1.Cl [TCMDC-141334]	-5.00	–	1140	–	–	–	–	–	9.98	420
C#CCOc1ccc2ccccc2c1CNCCCCCCNCc1c(OCC#C)ccc2ccccc12.CS(=O)(=O)O [TCMDC-137838]	–	–	–	–	77.84	2.92	780	1050	–	–
CCn1c(-c2nonc2N)nc2c(-c3cc4ccccc4s3)ncc(C(=O)N3CCC(N)C3)c21.O=C(O)C(F)(F)F (stereo not drawn) [TCMDC-135281]	66.75	1.00	870	450	–	–	–	–	–	–
NCc1ccc(CNCc2ccc(-c3ccc(-c4nc5cc(C(F)(F)F)ccc5[nH]4)s3)cc2)cc1.O=C(O)C(F)(F)F [TCMDC-132814]	6.11	8.32	160	1020	–	–	–	–	–	–
CN1CCc2cc(NS(=O)(=O)c3ccc(-c4ccc(Cl)cc4)cc3)c(OCCCN3CCCCC3)cc2CC1.Cl [TCMDC-141754]	6.66	–	960	–	–	–	–	–	2.23	970
COc1ccccc1C1CCN(C2CCC(NC(=O)c3ccc4[nH]c(-c5ccc(C)cc5)nc4c3)CC2)CC1 (stereo not drawn) [TCMDC-133556]	22.02	3.99	310	2490	–	–	–	–	–	–
CC(C)NCc1ccc(OCc2cccc(COc3ccc(CNC(C)C)cc3I)c2)c(I)c1.Cl [TCMDC-137259]	–	–	–	–	81.19	1.64	90	1320	–	–
Cc1cc(Nc2ncc(C#N)c(Nc3ccccc3C(N)=O)n2)ccc1N1CCN(C)CC1.Cl [TCMDC-134115]	20.18	0.40	9	1670	–	–	–	–	–	–
CC(Cc1ccc(NC(=O)c2ccc(CNCCc3ccccc3)cc2)cc1)NCCc1cccc(Cl)c1.Cl (stereo not drawn) [TCMDC-139867]	–	–	–	–	10.73	4.17	350	2070	–	–
C=CCN(C(=O)c1ccc(Cl)c([N+](=O)[O-])c1)c1nc(-c2ccccc2)cs1 [TCMDC-124436]	100.64	>100	400	130	–	–	–	–	–	–
CCCCOc1cc(OC)c2ccccc2c1CCNCCCCNCCc1c(OCCCC)cc(OC)c2ccccc12.CS(=O)(=O)O [TCMDC-137845]	–	–	–	–	95.21	1.97	1050	760	–	–
O=C(Nc1cc(C(F)(F)F)cc(C(F)(F)F)c1)Nc1ccc(Cl)c(Cl)c1 [TCMDC-125592]	-6.96	3.07	240	1430	–	–	–	–	–	–
